Series [1] can be described thus: Cytotoxicity against human RPTEC cells assessed as inhibition of cell growth incubated for 24 hrs by MTT assay. The format is toxicity, cell-based. On the technique in general: Tetrazolium dyes change colour on reduction, which living cells bring about.
Series [2] deals with UO-31. The experiment in a line: Induction of cell cycle arrest in human UO-31 cells assessed as accumulation of cells in G0-G1 phase at 3.61 uM measured after 24 hrs by PI staining based flow cytometry analysis (reference value: 49.26%). The format is functional. (In flow cytometry, cells or beads pass a laser one at a time.)
Series [3] concerns UO-31. The experiment in a line: Induction of cell cycle arrest in human UO-31 cells assessed as accumulation of cells in S phase at 3.61 uM measured after 24 hrs by PI staining based flow cytometry analysis (reference value: 36.42%). Format: functional.
Series [4] relates to UO-31. The experiment in a line: Induction of cell cycle arrest in human UO-31 cells assessed as accumulation of cells in G2/M phase at 3.61 uM measured after 24 hrs by PI staining based flow cytometry analysis (reference value: 14.32%). The format is functional.
Series [5] relates to UO-31. Format: functional, Homo sapiens. The note with it: dose 3.61 µM; time 24 hrs.
Series [6] concerns UO-31. The experiment in a line: Induction of cell cycle arrest in human UO-31 cells assessed as cell aggregates at 3.61 uM measured after 24 hrs by PI staining based flow cytometry analysis (reference value: 1.82%). Format: functional.
Series [7] deals with UO-31. The experiment in a line: Induction of cell cycle arrest in human UO-31 cells assessed as cell debris at 3.61 uM measured after 24 hrs by PI staining based flow cytometry analysis (reference value: 2.19%). Format: functional.
The test system of series [8] is UO-31. The experiment in a line: Induction of apoptosis in human UO-31 cells assessed as early apoptotic cells at IC50 by Annexin V-FITC/PI staining based flow cytometry analysis (reference value: 0.61%). The format is functional.
The subject of series [9] is UO-31. The experiment in a line: Induction of apoptosis in human UO-31 cells assessed as late apoptotic cells at IC50 by Annexin V-FITC/PI staining based flow cytometry analysis (reference value: […]). Format: functional.
In series [10] the test system is UO-31. The experiment in a line: Induction of apoptosis in human UO-31 cells assessed as necrotic cells at IC50 by Annexin V-FITC/PI staining based flow cytometry analysis (reference value: 1.19%). The format is functional.
Series [11] has as its system UO-31. The experiment in a line: Induction of apoptosis in human UO-31 cells assessed as increase in caspase-3 level by measuring optical density by Western blot densitometry analysis (reference value: 0.095). The format is functional.
Series [12] has as its system UO-31. The experiment in a line: Induction of apoptosis in human UO-31 cells assessed as Bax protein level by ELISA (reference value: 70.11 +/- 7.45 pg/ml). Format: functional. Background: An ELISA detects its analyte on a solid surface through an enzyme-linked reagent.
The subject of series [13] is UO-31. Kind of series: Induction of apoptosis in human UO-31 cells assessed as Bcl-2 protein level by ELISA (reference value: 12.19 +/- 0.64 ng/ml). Format: functional.
For series [14], the system named is UO-31. Kind of series: Induction of apoptosis in human UO-31 cells assessed as fold increase in Bax protein level by ELISA relative to control. The format is functional.
In series [15] the test system is UO-31. The experiment in a line: Induction of apoptosis in human UO-31 cells assessed as fold decrease in Bcl-2 protein level by ELISA relative to control. Format: functional.
Series [16] has as its system UO-31. The experiment in a line: cells. The settings on record: Homo sapiens, UO-31, 24 h.
Series [17] deals with M14. Kind of series: cells. The note with it: Homo sapiens, M14, 24 h.
Series [18] relates to HCT-116. The experiment in a line: cells. The note with it: Homo sapiens, HCT-116, 24 h.
Series [19] concerns SNB-75. The experiment in a line: cells. The settings on record: Homo sapiens, SNB-75, 24 h.
In series [20] the test system is UO-31. Kind of series: cells. The note with it: Homo sapiens, UO-31, light or radiation study.
The subject of series [21] is M14. The experiment in a line: cells. The settings on record: Homo sapiens, M14, light or radiation study.

Turning to `COc1cccc2c1C(=O)c1c(O)c3c(c(O)c1C2=O)C[C@@](O)(C(=O)CO)C[C@@H]3O[C@H]1C[C@H](N)[C@H](O)[C@H](C)O1` [DOXORUBICIN], in [1], the IC50 (as a rule, the midpoint of a concentration-inhibition curve) at 24 h turned out to be 12.5 µM. Further, the Activity was determined as 43.47% in series [2]; 48.62% in series [3]; 7.91% in series [4]; 51.66% in series [5]; 2.13% in [6]; 1.66% in [7]. Also, the Activity was determined as 14.13% in series [8]; 26.5% in series [9]; 11.03% in series [10]; 392.1 pg/mL in series [12]; 4.396 ng/mL in series [13]. Further, the OD in series [11] came out at 0.844. Moreover, the “fold change (FC)” value in [14] came out at 5.59; in [15], 0.36. The IC50 in series [16] turned out to be 3.61 µM; in [17], 5.11 µM; in series [18], 0.49 µM; in series [19] it was 5.82 µM; in series [20], 3.01 µM; in [21], 2.13 µM.
